Test results reported in US12486489B2, “Culture medium for testing drug resistance of H.pylori as well as preparation method and use thereof” (priority 2022, dated 2025).
Read-outs that look alike come from different tables or passages of the source.

How the values were obtained:
H. pylori [1] = experiment: Verification of resistance breakpoint: growth of laboratory strains on Columbia solid culture medium with added antibiotics, 72 hours; format: cell-based, Helicobacter pylori; conditions: for growth of bacterial: antibiotic 0.0313 μg/mL
Procedure: The plates are cooled and inverted for approximately 10 mL/piece, marked properly for the subsequent use.
(2) Preparation of bacterial solution: H. pylori grown in logarithmic phase on a solid plate is taken to prepare a bacterial suspension by using BHI. The concentration OD600 is adjusted to 0.3 (1×10^8 CFU/mL), diluted 10 times for the subsequent use.
(3) Inoculation of bacterial solution: 10 μL of bacterial solution is taken and added to Columbia culture medium and the results are determined after cultivating for 72 hours.
(4) Result determination: the minimum drug concentration for no growth of bacteria on the plate is the minimum inhibitory concentration of the bacteria against the drug.

[2] = tested on: clinical H. pylori strain; experiment: MIC of clinical H. pylori strains by micro dilution method; format: cell-based; conditions: Helicobacter pylori, 72 h, approximately 1.0×10^6 CFU/mL per well, 72 hours, read-out: MIC
Procedure: (§1) The characteristic culture media (A, B, C, D, E) are cultivated at a constant temperature of 37° C. for 36 hours in a three gas incubator. The characteristic culture media are removed and placed in a natural environment for 30 minutes to observe whether there are discolorations at the point of the culture medium where the specimen is dropped in. […] Another 100 μL of the specimen is taken and coated on Columbia solid culture medium and cultivated in a three gas incubator at a constant temperature of 37° C. for 3 days to 5 days. The number of colonies on the plate is counted to determine the initial inoculation amount. The micro dilution method is adopted to test the MIC of clinical specimen H. pylori, the test is meaningful only when there is no bacterial growth in the negative control well without bacteria and there is bacterial growth in the positive well with bacteria but without antibiotics.
H. pylori single colony grown on Colombian culture medium is taken (which is confirmed as H. pylori by urease, oxidase, catalase, and PCR testing of CagA gene, as illustrated in FIG. 13) and the bacteria are increased. During the preparation of MIC plates and bacterial solution, H. pylori with logarithmic growth phase is taken to prepare a bacterial suspension by using BHI. The concentration OD600 is adjusted to 0.3 (1×10^8 CFU/mL, diluted 10 times, 10 μL is taken and added to wells 1-8 (with a bacterial solution concentration of approximately 1.0×10^6 CFU/mL per well, cultivated for 72 hours to determine the results.

H. pylori [3] = experiment: MIC of laboratory H. pylori strains by micro dilution method; format: cell-based; conditions: Helicobacter pylori
Procedure: (3) Preparation of bacterial solution: H. pylori grown in logarithmic phase on a solid plate is taken, BHI culture medium is used to prepare a bacterial suspension. The concentration of the bacterial solution is adjusted to 1×10^8 CFU/mL (OD600 is 0.3), diluted 10 times, 100 times, and 1000 times to implement a final concentration of […], for the subsequent use.
(4) Inoculation of bacterial solution: 10 μL of the above bacterial solution for the subsequent use is taken and added to wells the 1-10-th and the 12-th well (bacterial working concentration is 1×10^6 CFU/mL), the 11-th well serves as a non-bacterial control and only sterile water is added. The wells are cultivated for 72 hours to determine the results.

[4] = tested on: clinical H. pylori strain; experiment: Drug resistance testing of clinical specimens on characteristic culture medium (discoloration after 36 hours); format: cell-based, Helicobacter pylori
Procedure: as §1
(1) Transfer liquid preparation: after sterilization and cooling, BHI culture medium is added with 10% calf serum, followed by 30% glycerol to prepare H. pylori preservation solution. On this basis, 1% H. pylori selective additive is added to prepare the transfer liquid. 1 mL of transfer solution is taken into a sterile EP tube, and 6-8 sterilized small steel balls are poured into the EP tube for the subsequent use.
(3) Specimen acquisition: a biopsy tissue group is obtained from the gastric antrum and a small curvature side of the gastric body through a gastroscopy biopsy passage and placed into an EP tube (strictly sterile operation). The biopsy tissue is placed on the ice surface and transferred as soon as possible (within 2 hours) to complete the subsequent steps.
(4) Preparation of bacterial solution containing tissue: the EP tube containing tissue is placed in a homogenizer at 300 hz and crushed for 5 minutes, transferred to another EP, centrifuged at 12000 rpm for 2 minutes, the supernatant is discarded, BHI is resuspended to 200 μL, and a bacterial suspension is prepared for the subsequent use.
(5) Inoculation of bacterial solution: 10 μL of bacterial solution is taken and added dropwise to the characteristic culture medium (5 pieces in total). The characteristic culture medium is removed after cultivating in a three gas incubator at 37° C. for 36 hours, and the results are determined after leaving for 30 minutes; another 100 μL is taken and coated onto Colombian culture medium for the traditional bacterial culture.

H. pylori [5] = conditions: bacterial count 1×10^6 CFU/mL; cited from earlier work

For `CC1(C)S[C@@H]2[C@H](NC(=O)[C@H](N)c3ccc(O)cc3)C(=O)N2[C@H]1C(=O)O` [Amoxicillin, amoxicillin], the “growth of sensitive strains” value (H. pylori [1]; levofloxacin 0.5, clarithromycin 0.5, metronidazole 4, amoxicillin 0.5 μg/mL) was “no sensitive strain grows”, the growth of bacterial (H. pylori [1]; strain 159) was “+” and the growth of bacterial (H. pylori [1]; strain 161) was “+”. The growth of bacterial (H. pylori [1]; strain 162) was “+”, the growth of bacterial (H. pylori [1]; strain 163) was “+” and the growth of bacterial (H. pylori [1]; strain 286) was “−”. The growth of bacterial (H. pylori [1]; strain 287) was “+”, the growth of bacterial (H. pylori [1]; strain 289) was “+” and the growth of bacterial (H. pylori [1]; strain 290) was “+”. The growth of bacterial (H. pylori [1]; strain 26695) was “+”, the growth of bacterial (H. pylori [1]; strain G27) was “+” and the MIC ([2]; clinical strain FY-31) was 0.0312 µg/mL. It also gave an MIC ([2]; clinical strain FY-43) of 0.0312 µg/mL, an MIC ([2]; clinical strain FY-47) of 0.0312 µg/mL and an MIC ([2]; clinical strain FY-52) of less than 0.0312 µg/mL. The MIC (H. pylori [3]; read-out: MICs, standard sensitive strains G27 and 26695, bacterial count 1×10^6 CFU/mL) was 0.0156 to 0.0325 µg/mL, the MIC (H. pylori [3]; read-out: minimum inhibitory concentration (MIC), strain 159, bacterial count 10^6 CFU/mL (first line of the strain)) was 0.125 µg/mL and the MIC (H. pylori [3]; read-out: minimum inhibitory concentration (MIC), strain 161, bacterial count 10^6 CFU/mL (first line of the strain)) was 0.125 µg/mL. For the same compound, the MIC (H. pylori [3]; read-out: minimum inhibitory concentration (MIC), strain 162, bacterial count 10^6 CFU/mL (first line of the strain)) was 0.125 µg/mL, the MIC (H. pylori [3]; read-out: minimum inhibitory concentration (MIC), strain 163, bacterial count 10^4 CFU/mL) was 0.25 µg/mL and the MIC (H. pylori [3]; read-out: minimum inhibitory concentration (MIC), strain 163, bacterial count 10^6 CFU/mL (first line of the strain)) was 1 µg/mL. The MIC (H. pylori [3]; read-out: minimum inhibitory concentration (MIC), strain 163, bacterial count 10^6 CFU/mL (second line of the strain)) was 0.5 µg/mL, the MIC (H. pylori [3]; read-out: minimum inhibitory concentration (MIC), strain 286, bacterial count 10^4 CFU/mL) was 0.5 µg/mL and the MIC (H. pylori [3]; read-out: minimum inhibitory concentration (MIC), strain 286, bacterial count 10^6 CFU/mL (first line of the strain)) was 1 µg/mL. The MIC (H. pylori [3]; read-out: minimum inhibitory concentration (MIC), strain 286, bacterial count 10^6 CFU/mL (second line of the strain)) was 0.5 µg/mL, the MIC (H. pylori [3]; read-out: minimum inhibitory concentration (MIC), strain 287, bacterial count 10^6 CFU/mL (first line of the strain)) was 0.25 µg/mL and the MIC (H. pylori [3]; read-out: minimum inhibitory concentration (MIC), strain 287, bacterial count 10^6 CFU/mL (second line of the strain)) was 0.125 µg/mL. The MIC (H. pylori [3]; read-out: minimum inhibitory concentration (MIC), strain 289, bacterial count 10^4 CFU/mL) was 0.125 µg/mL, the MIC (H. pylori [3]; read-out: minimum inhibitory concentration (MIC), strain 289, bacterial count 10^6 CFU/mL (first line of the strain)) was 1 µg/mL and the MIC (H. pylori [3]; read-out: minimum inhibitory concentration (MIC), strain 289, bacterial count 10^6 CFU/mL (second line of the strain)) was 0.5 µg/mL. The MIC (H. pylori [3]; read-out: minimum inhibitory concentration (MIC), strain 290, bacterial count 10^4 CFU/mL) was 1 µg/mL, the MIC (H. pylori [3]; read-out: minimum inhibitory concentration (MIC), strain 290, bacterial count 10^6 CFU/mL (first line of the strain)) was 4 µg/mL and the MIC (H. pylori [3]; read-out: minimum inhibitory concentration (MIC), strain 290, bacterial count 10^6 CFU/mL (second line of the strain)) was 2 µg/mL. For the same compound, the MIC (H. pylori [3]; read-out: minimum inhibitory concentration (MIC), strain 26695, bacterial count 10^4 CFU/mL) was 0.0325 µg/mL, the MIC (H. pylori [3]; read-out: minimum inhibitory concentration (MIC), strain 26695, bacterial count 10^6 CFU/mL (second line of the strain)) was 0.0325 µg/mL and the MIC (H. pylori [3]; strain G27, bacterial count 10^4 CFU/mL, read-out: minimum inhibitory concentration (MIC)) was 0.00781 µg/mL. For the same compound, the MIC (H. pylori [3]; strain G27, bacterial count 10^6 CFU/mL (first line of the strain), read-out: minimum inhibitory concentration (MIC)) was 0.0312 µg/mL, the MIC (H. pylori [3]; strain G27, bacterial count 10^6 CFU/mL (second line of the strain), read-out: minimum inhibitory concentration (MIC)) was 0.0156 µg/mL and the “drug resistance determined on characteristic culture medium” value (shortened to “drug resistance determined”) ([4]; clinical H. pylori strain FY-31) was “sensitive”. The “drug resistance determined” value ([4]; clinical H. pylori strain FY-43) was “sensitive”, the “drug resistance determined” value ([4]; clinical H. pylori strain FY-47) was “sensitive” and the “drug resistance determined” value ([4]; clinical H. pylori strain FY-52) was “sensitive”. For the same compound, the “resistance breakpoints of H. pylori according to CLSI guidelines” value (H. pylori [5]) was 0.5 µg/mL.
